Experimental data: patent US20090300848A1, “EPOXIDE-BASED TANNAGE SYSTEM” (BLC LEATHER TECHNOLOGY CENTRE LTD, priority 2006, published 2009)
Converted amounts (≈) assume the structure as drawn.

Assay: solubility in aqueous phase
Assay type: physicochemical
Conditions: water, 25° C.
Description: By having an aromatic-like, heterocyclic triazine nucleus, it is believed to impart a network structure into the protein during tanning, giving better thermal stability.

## O=c1n(CC2CO2)c(=O)n(CC2CO2)c(=O)n1CC1CO1 (stereo not shown) [TGIC, trigycidyl isocyanurate]
  solubility: 10000 µg/mL (≈ 33.6 mM)
